The text below walks through data of PubChem BioAssay AID330 (DTP/NCI, 2004).

The test system of the assay is P388 leukemia ip, CD2F1 mice, survival T/C. Kind of assay: NCI In Vivo Anticancer Drug Screen. Data for tumor model P388 Leukemia (intraperitoneal) in CD2F1 (CDF1) mice. To be noted: endpoint: median survival time, higher = longer survival. The essentials: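 Mice carrying the transplanted tumor received test compound or vehicle. Survival was recorded in each group, and the value is the treated-group measurement divided by that of the vehicle-treated control group.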

“And” between values parts separate entries of the source, which are not always exact repeats. Identical values can stand only once. Toxic doses and inconclusive results are not listed.

For `O=C(O)CCCc1ccc(N(CCCl)CCCl)cc1`, the T/C is, setting by setting: (dose: 1.0 mg/kg/injection, schedule: Q01DX005 (ip), vehicle: saline with Tween-80) 106 % of control; (dose: 1.0 mg/kg/injection, schedule: Q03HX024 (ip), vehicle: saline) 109 % of control; (dose: 1.25 mg/kg/injection, schedule: Q01DX005 (ip), vehicle: saline with Tween-80) 113 % of control and 119 % of control and 121 % of control; (dose: 1.3 mg/kg/injection, schedule: Q01DX009 (ip), vehicle: saline + alcohol) 117 % of control; (dose: 2.0 mg/kg/injection, schedule: Q01DX005 (ip), vehicle: saline with Tween-80) 113 % of control; (dose: 2.0 mg/kg/injection, schedule: Q03HX016 (ip), vehicle: saline) 123 % of control. For the same compound, the T/C is 163 % of control (dose: 2.0 mg/kg/injection, schedule: Q03HX024 (ip), vehicle: saline); 110 % of control (dose: 2.0 mg/kg/injection, schedule: Q04DX003 (ip), vehicle: Klucel (hydroxypropylcellulose) (HPC)); 120 % of control (dose: 2.2 mg/kg/injection, schedule: Q01DX009 (ip), vehicle: saline + alcohol); 114 % of control (dose: 2.59 mg/kg/injection, schedule: Q04DX002 (ip), vehicle: saline with Tween-80); 160 % of control (dose: 3.24 mg/kg/injection, schedule: Q01DX009 (ip), vehicle: Klucel (hydroxypropylcellulose) (HPC)); 115 % of control (dose: 3.6 mg/kg/injection, schedule: Q01DX009 (ip), vehicle: saline + alcohol). Besides, the T/C is, setting by setting: (dose: 3.75 mg/kg/injection, schedule: Q01DX009 (ip), vehicle: Klucel (hydroxypropylcellulose) (HPC)) 118 % of control; (dose: 4.0 mg/kg/injection, schedule: Q01DX009 (ip), vehicle: saline) 120 % of control; (dose: 4.0 mg/kg/injection, schedule: Q01DX009 (sc), vehicle: saline) 118 % of control; (dose: 4.0 mg/kg/injection, schedule: Q03HX008 (ip), vehicle: saline) 150 % of control; (dose: 4.0 mg/kg/injection, schedule: Q03HX016 (ip), vehicle: saline) 204 % of control; (dose: 4.0 mg/kg/injection, schedule: Q04DX003 (ip), vehicle: Klucel (hydroxypropylcellulose) (HPC)) 111 % of control. The T/C runs as follows: (dose: 4.32 mg/kg/injection, schedule: Q04DX002 (ip), vehicle: saline with Tween-80) 119 % of control; (dose: 4.5 mg/kg/injection, schedule: Q01DX009 (ip), vehicle: saline + alcohol) 153 % of control; (dose: 5.0 mg/kg/injection, schedule: Q01DX009 (ip), vehicle: saline + alcohol) 154 % of control; (dose: 5.4 mg/kg/injection, schedule: Q01DX009 (ip), vehicle: Klucel (hydroxypropylcellulose) (HPC)) 180 % of control; (dose: 6.7 mg/kg/injection, schedule: Q01DX009 (ip), vehicle: saline + alcohol) 180 % of control; (dose: 7.5 mg/kg/injection, schedule: Q01DX009 (ip), vehicle: Klucel (hydroxypropylcellulose) (HPC)) 122 % of control. Further, the T/C runs as follows: (dose: 8.0 mg/kg/injection, schedule: Q01DX005 (ip), vehicle: saline with Tween-80) 186 % of control; (dose: 8.0 mg/kg/injection, schedule: Q01DX009 (ip), vehicle: saline) 170 % of control; (dose: 8.0 mg/kg/injection, schedule: Q01DX009 (sc), vehicle: saline) 118 % of control; (dose: 8.0 mg/kg/injection, schedule: Q03HX016 (ip), vehicle: saline) 200 % of control; (dose: 8.0 mg/kg/injection, schedule: Q03HX024 (ip), vehicle: saline) 90 % of control; (dose: 8.0 mg/kg/injection, schedule: Q04DX003 (ip), vehicle: saline) 113 % of control. Further, the T/C was 113 % of control (dose: 8.0 mg/kg/injection, schedule: Q04DX003 (ip), vehicle: water); 152 % of control (dose: 9.0 mg/kg/injection, schedule: Q01DX009 (ip), vehicle: Klucel (hydroxypropylcellulose) (HPC)); 166 % of control and 172 % of control and 183 % of control (dose: 10.0 mg/kg/injection, schedule: Q01DX009 (ip), vehicle: saline + alcohol); 160 % of control (dose: 10.0 mg/kg/injection, schedule: Q01DX009 (ip), vehicle: saline with Tween-80); 115 % of control (dose: 15.0 mg/kg/injection, schedule: Q01DX009 (ip), vehicle: Klucel (hydroxypropylcellulose) (HPC)); 173 % of control (dose: 15.0 mg/kg/injection, schedule: Q01DX009 (ip), vehicle: saline with Tween-80). The T/C (dose: 16.0 mg/kg/injection, schedule: Q01DX001 (ip), vehicle: saline) is 113 % of control; the T/C (dose: 16.0 mg/kg/injection, schedule: Q01DX001 (sc), vehicle: saline) is 104 % of control; the T/C (dose: 16.0 mg/kg/injection, schedule: Q01DX005 (ip), vehicle: saline with Tween-80) was 176 % of control; the T/C (dose: 16.0 mg/kg/injection, schedule: Q01DX009 (sc), vehicle: saline) was 122 % of control; the T/C (dose: 16.0 mg/kg/injection, schedule: Q03HX008 (ip), vehicle: saline) was 186 % of control; the T/C (dose: 16.0 mg/kg/injection, schedule: Q03HX016 (ip), vehicle: saline) was 95 % of control. Besides, the T/C was 169 % of control (dose: 16.0 mg/kg/injection, schedule: Q04DX003 (ip), vehicle: Klucel (hydroxypropylcellulose) (HPC)); 154 % of control (dose: 16.0 mg/kg/injection, schedule: Q08DX002 (ip), vehicle: saline); 120 % of control (dose: 16.7 mg/kg/injection, schedule: Q01DX009 (ip), vehicle: saline + alcohol); 187 % of control (dose: 20.0 mg/kg/injection, schedule: Q01DX009 (ip), vehicle: saline with Tween-80); 163 % of control (dose: 20.0 mg/kg/injection, schedule: Q04DX002 (ip), vehicle: saline with Tween-80); 59 % of control (dose: 27.8 mg/kg/injection, schedule: Q01DX009 (ip), vehicle: saline + alcohol). Also, the T/C by setting is: (dose: 32.0 mg/kg/injection, schedule: Q01DX001 (sc), vehicle: saline) 109 % of control; (dose: 32.0 mg/kg/injection, schedule: Q04DX003 (ip), vehicle: Klucel (hydroxypropylcellulose) (HPC)) 100 % of control; (dose: 32.0 mg/kg/injection, schedule: Q04DX003 (ip), vehicle: saline) 190 % of control; (dose: 32.0 mg/kg/injection, schedule: Q04DX003 (ip), vehicle: water) 154 % of control and 212 % of control; (dose: 32.0 mg/kg/injection, schedule: Q08DX002 (ip), vehicle: saline) 190 % of control; (dose: 64.0 mg/kg/injection, schedule: Q01DX001 (sc), vehicle: saline) 113 % of control.

Turning to `c1ccc2c3c([nH]c2c1)CCCCC3`, the T/C by setting is: (dose: 25.0 mg/kg/injection, schedule: Q01DX009 (ip), vehicle: saline with Tween-80) 96 % of control; (dose: 50.0 mg/kg/injection, schedule: Q01DX009 (ip), vehicle: saline with Tween-80) 109 % of control; (dose: 100.0 mg/kg/injection, schedule: Q01DX009 (ip), vehicle: saline with Tween-80) 106 % of control; (dose: 200.0 mg/kg/injection, schedule: Q01DX009 (ip), vehicle: saline with Tween-80) 118 % of control.

With `COc1cc(NC(=O)C2=C(C)NC(C)=C(C(=O)Nc3cc(OC)c(Cl)cc3OC)C2c2cccc([N+](=O)[O-])c2)c(OC)cc1Cl`, the T/C runs as follows: (dose: 60.0 mg/kg/injection, schedule: Q01DX005 (ip), vehicle: Klucel (hydroxypropylcellulose) (HPC)) 89 % of control; (dose: 120.0 mg/kg/injection, schedule: Q01DX005 (ip), vehicle: Klucel (hydroxypropylcellulose) (HPC)) 89 % of control.

With `CN1N=Nc2ccccc2C1O` (centres undefined), the T/C was 92 % of control (dose: 25.0 mg/kg/injection, schedule: Q01DX005 (ip), vehicle: Klucel (hydroxypropylcellulose) (HPC)); 95 % of control (dose: 50.0 mg/kg/injection, schedule: Q01DX005 (ip), vehicle: Klucel (hydroxypropylcellulose) (HPC)); 116 % of control (dose: 100.0 mg/kg/injection, schedule: Q01DX005 (ip), vehicle: Klucel (hydroxypropylcellulose) (HPC)).

As to `CCN(CC)C(=O)c1ccc[n+](CCC(N)=O)c1`, the T/C runs as follows: (dose: 100.0 mg/kg/injection, schedule: Q04DX003 (ip), vehicle: saline) 90 % of control; (dose: 200.0 mg/kg/injection, schedule: Q04DX003 (ip), vehicle: saline) 100 % of control; (dose: 400.0 mg/kg/injection, schedule: Q04DX003 (ip), vehicle: saline) 100 % of control.

On to `CCOC(=O)C(=O)Cc1ccc(C(=N)N)cc1`, for which the T/C is, setting by setting: (dose: 50.0 mg/kg/injection, schedule: Q01DX009 (ip), vehicle: saline) 101 % of control; (dose: 100.0 mg/kg/injection, schedule: Q01DX009 (ip), vehicle: saline) 96 % of control; (dose: 200.0 mg/kg/injection, schedule: Q01DX009 (ip), vehicle: saline) 88 % of control.
